Data published in PMC7185853 (Fish & Shellfish Immunology, 2015).

System: VHSV
Assay: Inhibition of in vitro VHSV infection of ZF4 cells
Assay type: cell-based, viral haemorrhagic septicemia virus VHSV- 07.71
Conditions: for VHSV-inhibiting concentrations lower than those of the SERPINe1-derived peptide: ZF4 cells, duplicates (Fig. 3)

Compound | VHSV-inhibiting concentrations lower than those of the SERPINe1-derived peptide [fold] | Inhibition of VHSV infectivity in vitro (68 μg per ml (∼40 μM), ZF4 cells (Fig. 3)) [%]
O=C(O[C@@H]1Cc2c(O)cc(O)cc2O[C@@H]1c1cc(O)c(O)c(O)c1)c1cc(O)c(O)c(O)c1 [EGCG] | ~50 | –
O=C(O)C(=O)c1cn(Cc2ccccc2)c2ccc(-c3ccc(OC(F)(F)F)cc3)cc12 [tiplaxtinin] | ~50 | –
tannic acid | ~50 | ~95
